From ChEMBL document CHEMBL1201862, “PubChem BioAssay data set” (2004)
Each block holds one compound with its values, some of them ahead of it. Activity calls are given as the source filed them.

Assays:
[1] = target: T1, Ubiquitin-conjugating enzyme E2 N (Homo sapiens, UniProt P61088); assay type: functional;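 further: Dose-response confirmation in a TR-FRET assay detecting UBC13-driven polyubiquitin chain formation, inhibition measured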
T1 sequence (P61088 whole entry): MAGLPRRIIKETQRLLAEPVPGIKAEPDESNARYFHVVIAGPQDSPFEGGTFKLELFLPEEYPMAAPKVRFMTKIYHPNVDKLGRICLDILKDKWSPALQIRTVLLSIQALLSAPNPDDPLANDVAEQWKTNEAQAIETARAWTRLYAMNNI

[2] = target: T2, DNA repair protein RAD52 homolog (Homo sapiens, UniProt P43351); assay type: functional, biochemical
T2 sequence (P43351 whole entry): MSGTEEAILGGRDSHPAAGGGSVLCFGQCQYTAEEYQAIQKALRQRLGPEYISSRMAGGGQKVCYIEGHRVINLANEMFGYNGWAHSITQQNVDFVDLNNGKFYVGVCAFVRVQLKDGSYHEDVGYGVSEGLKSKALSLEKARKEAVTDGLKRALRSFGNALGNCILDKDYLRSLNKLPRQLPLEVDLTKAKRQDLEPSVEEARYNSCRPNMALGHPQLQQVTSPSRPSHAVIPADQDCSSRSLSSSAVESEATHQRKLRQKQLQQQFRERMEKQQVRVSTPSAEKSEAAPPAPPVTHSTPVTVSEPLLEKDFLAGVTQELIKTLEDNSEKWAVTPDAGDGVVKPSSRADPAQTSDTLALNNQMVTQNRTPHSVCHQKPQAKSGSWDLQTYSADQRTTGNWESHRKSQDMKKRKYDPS

[3] = Concentration-dependent survival of SW480 colon cancer line, luminescence detection with CellTiter-Glo, half-maximal inhibitory concentration (AID 1117338); assay type: functional
[4] = RKO cell viability reduction, dose response, CellTiter-Glo luminescence (AID 1117322); assay type: functional
[5] = cytotoxicity toward HCT116 cells – cell-based, CellTiter-Glo luminescence, IC50, dose response (AID 1117332); assay type: functional; conditions: HCT-116
[6] = SNU-C1 cell viability reduction, dose response, CellTiter-Glo luminescence (AID 1117323); assay type: functional, cell-based
[7] = cytotoxicity toward Colo320 cells – cell-based, CellTiter-Glo luminescence, IC50, dose response (AID 1117334); assay type: functional; conditions: COLO 320
[8] = cytotoxicity toward HT-29 cells – cell-based, CellTiter-Glo luminescence, IC50, dose response (AID 1117330); assay type: functional
[9] = CellTiter-Glo luminescent dose response of DLD-1 viability loss (AID 1117352); assay type: functional
[10] = HCT116 cell viability decrease, GSK3B pretreatment – CellTiter-Glo, IC50, dose response (AID 1117339); assay type: functional; conditions: HCT-116
[11] = target: T3, Estrogen receptor (Homo sapiens, UniProt P03372);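 further: potency for inhibiting coactivator peptide recruitment to the receptor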
T3 sequence (P03372 whole entry): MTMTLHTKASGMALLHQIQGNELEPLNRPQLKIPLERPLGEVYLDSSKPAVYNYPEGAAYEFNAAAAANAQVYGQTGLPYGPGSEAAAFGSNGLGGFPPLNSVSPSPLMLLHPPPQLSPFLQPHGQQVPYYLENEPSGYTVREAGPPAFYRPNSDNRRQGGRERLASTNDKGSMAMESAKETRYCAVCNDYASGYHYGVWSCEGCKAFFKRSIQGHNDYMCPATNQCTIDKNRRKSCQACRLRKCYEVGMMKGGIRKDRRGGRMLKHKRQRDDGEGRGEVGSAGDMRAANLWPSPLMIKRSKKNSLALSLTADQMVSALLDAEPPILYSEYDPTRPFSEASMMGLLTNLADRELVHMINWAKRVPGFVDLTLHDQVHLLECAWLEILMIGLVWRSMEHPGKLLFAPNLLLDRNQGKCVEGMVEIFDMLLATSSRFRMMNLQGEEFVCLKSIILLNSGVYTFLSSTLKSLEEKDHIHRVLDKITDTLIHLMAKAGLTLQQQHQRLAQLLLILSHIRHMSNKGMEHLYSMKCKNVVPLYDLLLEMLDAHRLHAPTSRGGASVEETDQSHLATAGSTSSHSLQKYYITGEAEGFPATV

[12] = target: Prothrombin (Homo sapiens, UniProt P00734); experiment: Thrombin 1536 HTS Dose Response Confirmation. [Related pubchem assays: 1046 (Thrombin 1536 HTS; hits were confirmed in this assay)]; assay type: functional
[13] = target: Estrogen receptor beta (Homo sapiens, UniProt Q92731);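 further: recombinant ER-beta bound to coactivator SRC1 peptide in presence of estradiol agonist; inhibitors block coactivator peptide binding and lower the FRET signal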
[14] = target: T4, Heat shock factor protein 1 (Mus musculus, UniProt P38532); experiment: inhibition of MG132-induced HSE-luciferase signal, confirmation, cell-based, NIH3T3, luminescence, dose retest (AID 2382); assay type: functional;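 further: NIH3T3 fibroblasts with HSF1-driven luciferase reporter stressed by proteasome inhibitor MG132; luminescence from HSF1-driven luciferase expression after 8 hours of MG132 stress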
T4 sequence (P38532 whole entry): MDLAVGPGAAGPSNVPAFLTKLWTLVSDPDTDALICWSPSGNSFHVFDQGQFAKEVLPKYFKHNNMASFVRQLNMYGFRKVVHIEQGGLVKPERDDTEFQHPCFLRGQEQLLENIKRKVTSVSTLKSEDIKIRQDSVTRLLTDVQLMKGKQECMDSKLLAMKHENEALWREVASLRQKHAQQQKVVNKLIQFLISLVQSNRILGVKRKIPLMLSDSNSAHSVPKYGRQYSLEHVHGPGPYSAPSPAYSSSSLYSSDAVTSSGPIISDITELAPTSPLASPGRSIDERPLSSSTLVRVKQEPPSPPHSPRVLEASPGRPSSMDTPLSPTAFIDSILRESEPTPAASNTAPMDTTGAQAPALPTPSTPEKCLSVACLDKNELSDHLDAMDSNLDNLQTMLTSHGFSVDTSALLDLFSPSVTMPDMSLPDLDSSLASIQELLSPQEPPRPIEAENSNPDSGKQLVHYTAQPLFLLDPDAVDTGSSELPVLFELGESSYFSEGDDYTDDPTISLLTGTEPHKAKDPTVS

[15] = target: T5, Aminopeptidase N (Plasmodium falciparum FcB1/Columbia, UniProt O96935); experiment: P. falciparum M1AAP inhibitors, biochemical, fluorogenic H-Leu-NHMec substrate, 1536-well (AID 1445); set-up: species or system Plasmodium falciparum 3D7, 3D7
T5 sequence (O96935 whole entry): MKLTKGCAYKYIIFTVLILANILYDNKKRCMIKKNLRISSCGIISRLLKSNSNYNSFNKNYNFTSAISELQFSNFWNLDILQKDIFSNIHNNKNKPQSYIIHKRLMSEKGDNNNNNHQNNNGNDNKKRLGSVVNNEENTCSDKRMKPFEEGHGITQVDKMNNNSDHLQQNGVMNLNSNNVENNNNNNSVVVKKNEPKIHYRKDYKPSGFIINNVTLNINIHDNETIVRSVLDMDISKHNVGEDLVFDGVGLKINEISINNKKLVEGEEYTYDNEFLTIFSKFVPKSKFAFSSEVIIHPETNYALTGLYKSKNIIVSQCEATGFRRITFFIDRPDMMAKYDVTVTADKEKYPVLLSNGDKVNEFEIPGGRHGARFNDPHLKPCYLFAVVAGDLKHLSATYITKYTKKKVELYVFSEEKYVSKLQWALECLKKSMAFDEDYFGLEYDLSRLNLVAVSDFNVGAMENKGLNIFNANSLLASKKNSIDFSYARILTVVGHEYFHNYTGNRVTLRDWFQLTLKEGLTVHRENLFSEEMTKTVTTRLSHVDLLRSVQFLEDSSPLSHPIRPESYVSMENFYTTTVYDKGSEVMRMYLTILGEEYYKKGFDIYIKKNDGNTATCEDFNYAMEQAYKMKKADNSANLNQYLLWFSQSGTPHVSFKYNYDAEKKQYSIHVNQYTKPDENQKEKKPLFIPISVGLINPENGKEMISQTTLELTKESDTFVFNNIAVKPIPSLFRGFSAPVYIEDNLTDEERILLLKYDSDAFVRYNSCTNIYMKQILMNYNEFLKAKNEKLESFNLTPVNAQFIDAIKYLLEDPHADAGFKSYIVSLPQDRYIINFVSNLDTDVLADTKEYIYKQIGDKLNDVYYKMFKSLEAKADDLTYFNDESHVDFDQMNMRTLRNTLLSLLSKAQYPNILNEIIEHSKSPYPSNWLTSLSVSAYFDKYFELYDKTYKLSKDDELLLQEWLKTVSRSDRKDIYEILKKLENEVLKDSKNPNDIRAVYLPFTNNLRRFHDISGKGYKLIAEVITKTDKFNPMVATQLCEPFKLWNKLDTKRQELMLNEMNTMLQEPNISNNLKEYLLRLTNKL

Estrogen receptor beta, sequence (Q92731 whole entry): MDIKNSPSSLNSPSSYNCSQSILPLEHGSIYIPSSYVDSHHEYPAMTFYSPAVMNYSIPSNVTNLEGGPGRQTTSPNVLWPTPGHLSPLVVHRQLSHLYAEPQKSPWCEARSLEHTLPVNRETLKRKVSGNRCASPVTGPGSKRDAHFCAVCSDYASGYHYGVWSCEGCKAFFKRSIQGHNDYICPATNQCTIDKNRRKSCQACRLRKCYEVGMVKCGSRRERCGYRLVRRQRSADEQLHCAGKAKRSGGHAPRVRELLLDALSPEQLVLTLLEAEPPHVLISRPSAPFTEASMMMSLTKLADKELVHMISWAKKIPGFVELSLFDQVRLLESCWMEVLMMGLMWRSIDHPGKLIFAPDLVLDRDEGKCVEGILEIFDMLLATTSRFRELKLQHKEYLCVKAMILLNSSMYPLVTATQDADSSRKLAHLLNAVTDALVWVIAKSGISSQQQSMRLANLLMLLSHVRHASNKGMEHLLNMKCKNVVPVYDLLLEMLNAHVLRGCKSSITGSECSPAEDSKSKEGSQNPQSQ

IC50 [12]: > 50 µM (not active)
SMILES: Cc1nc2ccccc2c(=O)n1NC(=O)c1cc(Br)ccc1Cl

IC50 [15]: 54.2 µM (active)
SMILES: O=c1[nH]c2ccc(Br)cc2c(-c2ccccc2)c1CN1CCOCC1

The next lines start with the compound.

SMILES: CN1CCN(C2Cc3ccccc3Sc3ccc(Cl)cc32)CC1 (configuration not stated)
IC50 [1]: > 20 µM (inactive)
AC50 [2]: 22.5 µM (active)
IC50 [3]: 6.31 µM (inactive)
IC50 [4]: > 20 µM (inactive)
IC50 [5]: 9.17 µM (inactive)
IC50 [6]: 7.87 µM (inactive)
IC50 [7]: > 6.67 µM (inactive)
IC50 [8]: 8 µM (inactive)
IC50 [9]: > 20 µM (inactive)
IC50 [10]: 8.4 µM (inactive)

SMILES: C=CCn1c(SCC(=O)NC2CCCCC2)nnc1C(C)NC(=O)c1cccs1 (configuration not stated)
IC50 [11]: > 50 µM (not active)

SMILES: Cc1nn(Cc2ccccc2Cl)c(C)c1C(=O)NCc1ccco1
IC50 [13]: > 50 µM (not active)

SMILES: Cc1occc1C(=O)Nc1cc(C(F)(F)F)ccc1Cl
EC50 [14]: > 195 µM (not active)
IC50 [12]: > 50 µM (not active)

SMILES: Cc1ccc(-c2nc(N)n(C(=O)Cc3ccccc3)n2)cc1
IC50 [12]: 1.82 µM (active)
